Laboratory results reported in ChEMBL document CHEMBL1201862, “PubChem BioAssay data set” (2004).
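Compound exposure: 48 hours, 5 concentrations, 96-well plates. The concentration for 50% growth inhibition is given as GI50.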 Calls of active or inactive are those of the source. No stated cut-off is given here; in the data, active = GI50 up to about 1.1 µM and inactive = higher.

Key:
Experiment in all cases: growth of human tumour cells (NCI), 48 h
ACHN = system: ACHN
BT-549 = system: BT-549
CAKI-1 = system: CAKI-1
HCC 2998 = system: HCC 2998
HCT-116 = system: HCT-116
HOP-62 = system: HOP-62
K562 = system: K562
KM12 = system: KM12
LOX IMVI = system: LOX IMVI
MOLT-4 = system: MOLT-4
NCI-H23 = system: NCI-H23
OVCAR-3 = system: OVCAR-3
OVCAR-5 = system: OVCAR-5
RXF 393 = system: RXF 393
SF-295 = system: SF-295
SK-MEL-2 = system: SK-MEL-2
SNB-75 = system: SNB-75
TK-10 = system: TK-10
UO-31 = system: UO-31
KM-20L2 = system: KM-20L2

Row | SMILES | GI50 (ACHN) | GI50 (BT-549) | GI50 (CAKI-1) | GI50 (HCC 2998) | GI50 (HCT-116) | GI50 (HOP-62) | GI50 (K562) | GI50 (KM12) | GI50 (LOX IMVI) | GI50 (MOLT-4) | GI50 (NCI-H23) | GI50 (OVCAR-3) | GI50 (OVCAR-5) | GI50 (RXF 393) | GI50 (SF-295) | GI50 (SK-MEL-2) | GI50 (SNB-75) | GI50 (TK-10) | GI50 (UO-31) | GI50 (KM-20L2)
1 | CN(C)Cc1cc(/N=N/c2ccc(Cl)cc2)ccc1O | 15.3 µM (inactive) | 10.7 µM (inactive) | 15.4 µM (inactive) | 14.6 µM (inactive) | 16.7 µM (inactive) | 10.1 µM (inactive) | 17.3 µM (inactive) | 17.3 µM (inactive) | 11.4 µM (inactive) | 15.2 µM (inactive) | 23 µM (inactive) | 11.5 µM (inactive) | 12.1 µM (inactive) | 13.9 µM (inactive) | 16.5 µM (inactive) | 21.3 µM (inactive) | 14.9 µM (inactive) | 15 µM (inactive) | 11.7 µM (inactive) | –
2 | O=C(/C=C/c1cccc(Oc2ccccc2)c1)NCc1ccc(C(=O)NCc2ccccc2)cc1 | 71 µM (inactive) | 60.1 µM (inactive) | 43.8 µM (inactive) | > 100 µM (inactive) | 50.6 µM (inactive) | 2.96 µM (inactive) | > 100 µM (inactive) | > 100 µM (inactive) | > 100 µM (inactive) | > 100 µM (inactive) | 31 µM (inactive) | 68.5 µM (inactive) | > 100 µM (inactive) | 12.2 µM (inactive) | 21.8 µM (inactive) | 26 µM (inactive) | 12.1 µM (inactive) | 46.5 µM (inactive) | > 100 µM (inactive) | –
3 | Cc1ccc(S(=O)(=O)OCC23CCC(C4CC42)C2CC23)cc1 (stereo unspecified) | > 100 µM (inactive) | – | > 100 µM (inactive) | > 100 µM (inactive) | 87.7 µM (inactive) | 52.7 µM (inactive) | 52.4 µM (inactive) | – | > 100 µM (inactive) | 50.8 µM (inactive) | 48.8 µM (inactive) | 38.5 µM (inactive) | > 100 µM (inactive) | – | 50.8 µM (inactive) | – | – | > 100 µM (inactive) | 44.2 µM (inactive) | > 100 µM (inactive)
4 | CCOC(=O)C(C(=O)c1ccccc1-c1ccccc1C(=O)O)=P(c1ccccc1)(c1ccccc1)c1ccccc1 | 30 µM (inactive) | – | – | 22.3 µM (inactive) | 18.7 µM (inactive) | 18.8 µM (inactive) | 20 µM (inactive) | – | 20.3 µM (inactive) | 24.2 µM (inactive) | 20 µM (inactive) | 25.1 µM (inactive) | – | 37.2 µM (inactive) | 31.9 µM (inactive) | 20.6 µM (inactive) | 12.8 µM (inactive) | 80.4 µM (inactive) | > 10 µM (inactive) | 21 µM (inactive)
5 | CCN(CC)CC(C)(C)C(=O)/C=C/c1cccc(/C=C/C(=O)C(C)(C)CN(CC)CC)c1 | 1.15 µM (inactive) | – | 0.286 µM (active) | 1.22 µM (inactive) | 0.361 µM (active) | 2.31 µM (inactive) | 0.431 µM (active) | 0.471 µM (active) | 0.184 µM (active) | 0.27 µM (active) | 1.3 µM (inactive) | 1.11 µM (active) | 1.63 µM (inactive) | 0.433 µM (active) | 1.74 µM (inactive) | – | 0.176 µM (active) | 1.14 µM (inactive) | 1.75 µM (inactive) | 1.07 µM (active)
6 | CC1(C)[C@H]2CC[C@]1(C)[C@H](OC(=O)NNC(=O)O[C@@H]1C[C@@H]3CC[C@@]1(C)C3(C)C)C2 | 18.7 µM (inactive) | 19.7 µM (inactive) | 15.5 µM (inactive) | 14.1 µM (inactive) | 10.9 µM (inactive) | 14.9 µM (inactive) | 3.35 µM (inactive) | 15.7 µM (inactive) | 26.7 µM (inactive) | 7.29 µM (inactive) | 14.9 µM (inactive) | 11.9 µM (inactive) | 17.5 µM (inactive) | 10.6 µM (inactive) | 13.8 µM (inactive) | 16.8 µM (inactive) | 13.6 µM (inactive) | 20.6 µM (inactive) | 15 µM (inactive) | –
7 | Cc1cc2c(c(C#N)c1C)NC(=O)CCC2=O | > 100 µM (inactive) | – | > 100 µM (inactive) | > 100 µM (inactive) | > 100 µM (inactive) | > 100 µM (inactive) | > 100 µM (inactive) | > 100 µM (inactive) | – | > 100 µM (inactive) | > 100 µM (inactive) | > 100 µM (inactive) | – | 64 µM (inactive) | > 100 µM (inactive) | > 100 µM (inactive) | > 100 µM (inactive) | – | 16.5 µM (inactive) | > 100 µM (inactive)
8 | O=C(CSc1nc2ccc(I)cc2c(=O)n1Cc1ccccc1)NNC(=O)c1ccccc1 | 17.7 µM (inactive) | 7.31 µM (inactive) | 2.89 µM (inactive) | 33.8 µM (inactive) | 19.7 µM (inactive) | 8.02 µM (inactive) | 2.2 µM (inactive) | 17.5 µM (inactive) | 22.5 µM (inactive) | 11.4 µM (inactive) | 17.6 µM (inactive) | 19 µM (inactive) | 16 µM (inactive) | 4.73 µM (inactive) | 11.4 µM (inactive) | 6.08 µM (inactive) | 2.38 µM (inactive) | 11.8 µM (inactive) | 1.15 µM (inactive) | –
